Tests used:
A549 = test: MTT assay, antiproliferative activity; assay type: cell-based; conditions: Homo sapiens, 48h, read-out: Mean Growth Percentage
Protocol: (§1) Pyrazole acylhydrazones 10–13 and amides 14–22 were tested by MTT assay to evaluate their antiproliferative and cytotoxicity properties against a panel of eight tumor cell lines and normal fibroblasts.
(§2) All reagents were purchased from EuroClone, Milan, Italy). The following cell lines were used for MTT assays: SKOV-3 (ovarian adenocarcinoma, ATCC, Manassas, VA, USA); MCF-7 (breast adenocarcinoma, Biologic Bank and Cell Factory, IRCCS Policlinico San Martino, Genoa, Italy); Hep-G2 (hepatocellular carcinoma, ATCC, Manassas, VA, USA); SK-MEL28 (skin melanoma, Biologic Bank and Cell Factory, IRCCS Policlinico San Martino, Genoa, Italy), GM-6114 (embryonic human fibroblast, ATCC, Manassas, VA, USA); MDA-MB231 (breast adenocarcinoma, Biologic Bank and Cell Factory, IRCCS Policlinico San Martino, Genoa, Italy); HeLa (cervical adenocarcinoma, Biologic Bank and Cell Factory, IRCCS Policlinico San Martino, Genoa, Italy); SK-BR3 (breast andenocarcinoma, Biologic Bank and Cell Factory, IRCCS Policlinico San Martino, Genoa, Italy); A549 (lung carcinoma, Biologic Bank and Cell Factory, IRCCS Policlinico San Martino, Genoa, Italy); HUVEC (Human Umbilical Vein Endothelial Cells, ATCC, Manassas, VA, USA). All cell lines were grown in their medium with 10% FBS, 2 mM Glutamine, and 1% penstrep and incubated at 37 °C in 5% CO2 in a humidified environment. The cell lines were plated in 96-well plates at an adequate number to reach 80–90% confluence at the end of the assay. 16 h after cell plating, a 10 mM DMSO stock solution of the compounds was diluted in growth medium and added at a final working concentration of 10 μM. After 48h of incubation, a 2 mg/mL PBS solution of MTT (3-(4,5-dimethyl-2-thiazolyl)-2,5-diphenyl-2H-tetrazolium bromide) was added (30 μL/well). After 4h, the supernatant was removed, and the Formazan precipitates were dissolved in DMSO (100 μL/well). The 96-well plates were incubated for 20 min, and absorbance was measured at 570 nm using a plate reader. The results are expressed as a percentage ratio over control samples (100%) in which the cells were incubated with the same amount of DMSO but without compounds. Each value is the mean of three independent experiments run in six replicates.

Hep-G2 = test: MTT assay, antiproliferative activity; assay type: cell-based; conditions: Homo sapiens, HepG2, 48h
Protocol: as §1, §2

MDA-MB231 = test: MTT assay, antiproliferative activity; assay type: cell-based; conditions: Homo sapiens, MDA-MB-231, 48h
Protocol: as §1, §2

SK-BR3 = test: MTT assay, antiproliferative activity; assay type: cell-based; conditions: Homo sapiens, SK-BR-3, 48h
Protocol: as §1, §2

HeLa = test: MTT assay, antiproliferative activity; assay type: cell-based; conditions: Homo sapiens, 10 µM, 48h, read-out: Mean Growth Percentage
Protocol: as §1, §2
(§3) Each IC50 value is the mean of three independent experiments run in duplicate.

MCF7 = test: MTT assay, antiproliferative activity; assay type: cell-based; conditions: Homo sapiens, 10 µM, 48h
Protocol: as §1, §2, §3

SKMEL28 = test: MTT assay, antiproliferative activity; assay type: cell-based; conditions: Homo sapiens, SK-MEL-28, 10 µM, 48h
Protocol: as §1, §2, §3

SKOV3 = test: MTT assay, antiproliferative activity; assay type: cell-based; conditions: Homo sapiens, SK-OV-3, 10 µM, 48h
Protocol: as §1, §2, §3

GM-6114 = test: MTT assay, cytotoxicity on normal fibroblasts; assay type: cell-based; conditions: human, 48 h, 10 µM
washed platelets [1] = test: Platelet aggregation (thrombin-induced, Born's method); assay type: cell-based; conditions: Homo sapiens, 0.1 U/mL thrombin, mean ± SD, read-out: IC50 Aggregation inhibition
Protocol: (§4) The antioxidant properties of acylhydrazones 10–13 and pyrazolyl amides 14–22 were tested by evaluating their inhibition of platelet aggregation and ROS production (Figure 3, Table S1). In fact, human platelets could represent a fast and low-cost biological model to screen compounds as anticancer, anti-inflammatory, and antiaggregating agents. Moreover, ROS production inhibition, related to human platelet aggregation, could provide a good indication of the anti-inflammatory and antioxidant properties of the newly synthesized compounds [47, 50, 51, 52]. N-acetylcysteine (NAC) and acetyl salicylic acid (ASA) were used as reference drugs for antioxidant and antiaggregant activities, respectively.
(§5) Freshly drawn venous blood from healthy volunteers from “Centro Trasfusionale” (IRCCS Policlinico San Martino, Genoa, Italy) was collected into a 130 mM aqueous trisodium citrate anticoagulant solution (9:1). The donors claimed to not have taken drugs known to interfere with platelet function during the two weeks prior to blood collection and gave their informed consent. Whole blood was centrifuged at 100× g for 20 min to afford platelet-rich plasma that was then spun at 1100× g for 15 min. The obtained pellet was washed once with a pH 5.2 ACD solution (75 mM trisodium citrate, 42 mM citric acid, and 136 mM glucose), centrifuged at 1100× g for 15 min, and then re-suspended in pH 7.4 Hepes buffer (145 mM NaCl, 5 mM KCl, 1 mM MgSO4, 10 mM glucose, and 10 mM HEPES).
Thrombin was purchased from Sigma-Aldrich/Merck Millipore. A DMSO solution of compounds 10–22 was diluted in saline immediately before each experiment and added to the washed platelets (3.0 × 10^8/mL) at 37 °C. After 3 min, 0.1 U/mL thrombin was added, and platelet aggregation was quantified according to Born’s method using a Bio-Data Aggregometer (Bio-Data Corporation, Horsham, PA, USA). The IC50 values were calculated as detailed above.

washed platelets [2] = test: ROS assay in platelets (DCFH-DA, thrombin-stimulated); assay type: cell-based, human; conditions: Homo sapiens, Platelet, 0.1 U/mL thrombin, mean ± SD, read-out: IC50 ROS production inhibition
Protocol: as §4, §5
2′,7′-Dichlorofluorescein diacetate (DCFH-DA) and thrombin were purchased from Sigma-Aldrich/Merck Millipore. DMSO solutions of 10–22 were diluted in saline immediately before each experiment. ROS production was quantified by DCFH-DA, a ROS-sensitive probe that yields, upon oxidation, the fluorescent adduct DCF that is trapped inside the cells. Briefly, washed platelets (1.0 × 10^8/mL), pre-incubated with saline solutions of 10–22 for 15 min at 37 °C, were stimulated by 0.1 U/mL thrombin. Incubation was stopped by cooling samples in an ice bath, and then samples were immediately analyzed in a Merck Millipore Bioscience Guava easyCyte flow cytometer (Merk Millipore, Burlington, MA, USA). The reported IC50 values represent the molar concentration of the compounds able to inhibit 50% of the maximal aggregation induced by the agonist and are calculated as the percentage inhibition of the maximal aggregation measured in the presence of the agent compared with the measure in a control sample containing saline, carried out under the same conditions. The IC50 values were extrapolated from nonlinear regression analysis of concentration–response curves (three points) using MS Excel software (Microsoft 365 suite). Each IC50 value is the mean of six independent experiments.

| Compound | activity at 10 µM (A549) | Mean growth percentage at 10 µM (Hep-G2) | Mean growth percentage at 10 µM (MDA-MB231) | Mean growth percentage at 10 µM (SK-BR3) | activity at 10 µM (HeLa) | mean growth percentage (cell growth remaining vs control) at 10 µM (MCF7) | Mean growth percentage at 10 µM (SKMEL28) | Mean growth percentage at 10 µM (SKOV3) | Mean Growth Percentage (GM-6114) | IC50 (washed platelets [1]) | IC50 (washed platelets [2]) | melting point |
| --- | --- | --- | --- | --- | --- | --- | --- | --- | --- | --- | --- | --- |
| CCOC(=O)c1c(NC(=O)c2ccc(OC)cc2)nn(C)c1Nc1ccccc1 [compound 19, Ethyl 3-(4-Methoxybenzamido)-1-methyl-5-(phenylamino)-1H-pyrazole-4-carboxylate] | 92.9% | 105% | 136% | 103% | 124% | 95.2% | 85.2% | 97.3% | 66.69% | 294 ± 26 µM | 293 ± 18 µM | 143 to 145 °C |
| CCOC(=O)c1c(NC(=O)c2ccc(Cl)cc2)nn(C)c1Nc1ccccc1 [compound 18, Ethyl 3-(4-chlorobenzamido)-1-methyl-5-(phenylamino)-1H-pyrazole-4-carboxylate] | 69.6% | 78.5% | 141% | 80.9% | 91.5% | 63.5% | 68.4% | 96.9% | 72.99% | 268 ± 25 µM | 273 ± 17 µM | 158 to 161 °C |
| CCOC(=O)c1c(NC(=O)c2ccc(OC)c(OC)c2)nn(C)c1Nc1ccccc1 [compound 21, Ethyl 3-(3,4-dimethoxybenzamido)-1-methyl-5-(phenylamino)-1H-pyrazole-4-carboxylate] | 112% | 97.9% | 149% | 107% | 108% | 90.3% | 84.6% | 90.2% | 85.88% | 278 ± 27 µM | 262 ± 13 µM | 186 to 187 °C |
| COc1ccc(/C=N/NC(=O)c2c(Nc3ccccc3)nn(CC(O)c3ccccc3)c2N)cc1OC (stereo not drawn) [13b, (E)-5-amino-N′-(3,4-dimethoxybenzylidene)-1-(2-hydroxy-2-phenylethyl)-3-(phenylamino)-1H-pyrazole-4-carbohydrazide] | 104% | 106% | 92.1% | 92.2% | 98.8% | 101% | 95.7% | 114% | 106.86% | 909 ± 87 µM | 433 ± 32 µM | 158 to 159 °C |
| COc1ccc(/C=N/NC(=O)c2c(Nc3ccccc3)nn(CC(O)c3ccccc3)c2N)cc1Oc1ccccc1 (stereo not drawn) [13c, (E)-5-amino-1-(2-hydroxy-2-phenylethyl)-N′-(4-methoxy-3-phenoxybenzylidene)-3-(phenylamino)-1H-pyrazole-4-carbohydrazide] | 94.4% | 125% | 104% | 87.5% | 97.9% | 99.8% | 104% | 129% | 99.14% | 313 ± 29 µM | 209 ± 15 µM | 144 to 145 °C |
| CCOC(=O)c1c(NC(=O)c2ccc(OC)c(OC)c2)n[nH]c1Nc1ccccc1 [compound 16, Ethyl 3-(3,4-dimethoxybenzamido)-5-(phenylamino)-1H-pyrazole-4-carboxylate] | 52.6% | 49.1% | 96% | 82.5% | 57.6% | 62.4% | 54% | 66.9% | 53.68% | 292 ± 28 µM | 310 ± 24 µM | 143 to 145 °C |
| CCOC(=O)c1c(NC(=O)c2ccc(OC)cc2)n[nH]c1Nc1ccccc1 [compound 15, Ethyl 3-(4-methoxybenzamido)-5-(phenylamino)-1H-pyrazole-4-carboxylate] | 67.9% | 85.5% | 130% | 99.8% | 105% | 65.9% | 71.7% | 88.4% | 68.40% | 250 ± 19 µM | 323 ± 14 µM | 155 to 157 °C |

— article PMC11083148, “Structure–Activity Relationship Studies on Highly Functionalized Pyrazole Hydrazones and Amides as Antiproliferative and Antioxidant Agents” (International Journal of Molecular Sciences, 2024)
